Experimental data: patent publication US20250332173A1, “COMPOUNDS AND METHODS FOR MODULATING NUCLEIC ACID SPLICING” (REMIX THERAPEUTICS INC., priority 2021, published 2025)
Where a name gives a salt, the structure may show the parent alone. Read-outs that look alike come from different tables or passages of the source.

Key:
SMN2 mRNA = experiment: RT-qPCR splicing assay, SMN2 canonical junction (CJ) mRNA; format: cell-based, human; conditions: Homo sapiens; Table 5 panel; canonical junction qPCR; compound concentration having 50% response in CJ decrease; read-out: SMN2 IC50 (decrease in CJ mRNA levels)
Procedure, shortened: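 A673 cells (DMEM/10% FBS) or K562 cells (IMDM/10% FBS) were treated 24 h at 37° C. with 11-point 3-fold dilutions (top 10 uM, ≤0.25% DMSO). Canonical-junction mRNA was quantified in lysates by RT-qPCR, normalized to GAPDH, GUSB or PPIA.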

HTT = experiment: HiBiT protein abundance assay, HTT HiBiT K562 cell line; format: cell-based, human; conditions: 24 hours, top dose 10 μM
Procedure, shortened: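 Endogenous targets in K562 knock-in lines carried a HiBiT tag and were treated for 24 h at 37 °C with 10-point 3-fold dilutions (top 10 μM final, DMSO ≤0.25%). Abundance was read as lytic Nano-Glo HiBiT luminescence. IC50 came from a four-parameter logistic fit of normalized response.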

[1] = test system: K562 (human chronic myelogenous leukemia) cells; experiment: Cell Titer Glo 2.0 cell viability assay; format: cell-based; conditions: Homo sapiens, K562, 72 h, K562 cells, 72 hours, Cell Titer Glo 2.0; read-out: K562 GI50
[2] = HiBiT K562 cell line, read-out: Effect on protein abundance, HTT (IC50 category)

Compound	IC50 (SMN2 mRNA)	IC50 (HTT; [2])	GI50 [1]	IC50 (HTT; HiBiT lytic detection, modified K562 cells, read-out: Effect on protein abundance, HTT (IC50))
Cc1nc2c(C)cc(-c3cc(F)c4c(=O)n(C5CCNC6(CC6)C5)ncc4c3)cc2o1 (stereo not drawn) [Compound 555]	< 100 nM	< 100 nM	100 to 1000 nM	
Cc1cn2nc(-c3ccc4c(=O)n(C5CCNCC5)ccc4c3)cc(OCc3ccccc3)c2n1 [Compound 526, 6-(8-benzyloxy-2-methyl-imidazo[1,2-b]pyridazin-6-yl)-2-(4-piperidyl) isoquinolin-1-one]	< 100 nM	100 to 1000 nM	100 to 1000 nM	
Cc1cn2nc(-c3ccc4c(=O)n(C5CCNCC5)ccc4c3)cc(Oc3ccccc3F)c2n1 [Compound 544, 6-[8-(2-fluorophenoxy)-2-methyl-imidazo[1,2-b]pyridazin-6-yl]-2-(4-piperidyl) isoquinolin-1-one; hydrochloride]	< 100 nM	< 100 nM	100 to 1000 nM	
Cc1cc(-c2ccc3c(=O)n(C4CC(C)(C)NC(C)(C)C4)cnc3n2)cc2cn(C)nc12 [Compound 179]	1000 to 10000 nM	> 10000 nM	> 10000 nM	
CC(=O)Nc1cc(-c2cc(C)c3nc(C)cn3n2)cc2ccn([C@H]3CCNC3)c(=O)c12 [Compound 649, N-[6-(2,8-dimethylimidazo[1,2-b]pyridazin-6-yl)-1-oxo-2-[(3S)-pyrrolidin-3-yl]-8-isoquinolyl]acetamide]	100 to 1000 nM	1000 to 10000 nM	1000 to 10000 nM	
Cc1cn2nc(-c3ccc4c(=O)n(C5CCNCC5)ccc4c3)cc(C(=O)O)c2n1 [Compound 516, 2-methyl-6-[1-oxo-2-(4-piperidyl)-6-isoquinolyl]imidazo[1,2-b]pyridazine-8-carboxylic acid]	1000 to 10000 nM	1000 to 10000 nM	1000 to 10000 nM	
Cc1cn2cc(-c3cc(F)c4c(=O)n(C5CCNCC5)cnc4c3)cc(C#N)c2n1 [Compound 588]	< 100 nM	1000 to 10000 nM	1000 to 10000 nM	
Cc1cn2cc(-c3cc(F)c4c(=O)n([C@@H]5C[C@@H](C)N[C@@H](C)C5)ccc4c3)cc(F)c2n1 [Compound 642, 2-[(2S,6R)-2,6-dimethyl-4-piperidyl]-8-fluoro-6-(8-fluoro-2-methyl-imidazo[1,2-a]pyridin-6-yl)isoquinolin-1-one]	< 100 nM	100 to 1000 nM	1000 to 10000 nM	
Cc1cn2nc(-c3ccc4c(=O)n(C5CCNCC5)cnc4c3)cc(C)c2n1 [Compound 181]	< 100 nM	< 100 nM	100 to 1000 nM	
Cc1cn2nc(-c3ccc4c(=O)n(C5CCNCC5)ccc4c3)cc(CC#N)c2n1 [Compound 520, 2-[2-methyl-6-[1-oxo-2-(4-piperidyl)-6-isoquinolyl]imidazo[1,2-b]pyridazin-8-yl]acetonitrile]	< 100 nM	100 to 1000 nM	1000 to 10000 nM	
Cc1cn2nc(-c3ccc4c(=O)n(C5CCNCC5)ccc4c3)cc(C(=O)N(C)C)c2n1 [Compound 524, N, N, 2-trimethyl-6-[1-oxo-2-(4-piperidyl)-6-isoquinolyl]imidazo[1,2-b]pyridazine-8-carboxamide]	> 10000 nM	> 10000 nM	> 10000 nM	
CCN1CCC(n2ncc3cc(-c4cc(C)c5nc(C)cn5n4)cc(O)c3c2=O)CC1 [Compound 542]	< 100 nM	< 100 nM	100 to 1000 nM	
Cc1cn2nc(-c3cc(F)c4c(=O)n(C5CCNC5)cnc4c3)cc(C)c2n1 (stereo not drawn) [Compound 589, 7-{2,8-dimethylimidazo[1,2-b]pyridazin-6-yl}-5-fluoro-3-(pyrrolidin-3-yl)quinazolin-4-one]	100 to 1000 nM	1000 to 10000 nM	1000 to 10000 nM	
CCN1CCC(n2ncc3cc(-c4cc(C)c5nc(C)cn5n4)cc(F)c3c2=O)CC1 [Compound 537]	< 100 nM	< 100 nM	100 to 1000 nM	
Cc1cn2nc(-c3cc(N)c4c(=O)n([C@@H]5CCNC5)ccc4c3)cc(C)c2n1 [Compound 646, 8-amino-6-(2,8-dimethylimidazo[1,2-b]pyridazin-6-yl)-2-[(3R)-pyrrolidin-3-yl]isoquinolin-1-one]	100 to 1000 nM	> 10000 nM	1000 to 10000 nM	
CNc1cc(-c2cc(C)c3nc(C)cn3n2)cc2ccn([C@H]3CCNC3)c(=O)c12 [Compound 647, 6-(2,8-dimethylimidazo[1,2-b]pyridazin-6-yl)-8-(methylamino)-2-[(3S)-pyrrolidin-3-yl]isoquinolin-1-one]	100 to 1000 nM	1000 to 10000 nM	1000 to 10000 nM	
Cc1cn2nc(-c3ccc4c(=O)n(C5CCN(C)CC5)cnc4c3)cc(C)c2n1 [Compound 176]	100 to 1000 nM	1000 to 10000 nM	1000 to 10000 nM	
CN(c1ccc2c(=O)n(-c3ccc4nn(C)cc4c3)cnc2c1)C1CCNCC1 [Compound 180]	> 10000 nM	> 10000 nM	> 10000 nM	
Cc1cn2nc(-c3cc(O)c4c(=O)n(C5CCN(CCF)CC5)ncc4c3)cc(C)c2n1 [Compound 553]	< 100 nM	< 100 nM	100 to 1000 nM	
Cc1cn2nc(-c3ccn4c(=O)c(C5=CCNCC5)ncc4c3)cc(C)c2n1 [Compound 1182]	100 to 1000 nM		100 to 1000 nM	100 to 1000 nM
Cc1cn2nc(-c3ccc4c(=O)n(C5CCNCC5)ccc4c3)cc(CC(N)=O)c2n1 [Compound 528, 2-(2-methyl-6-(1-oxo-2-(piperidin-4-yl)-1,2-dihydroisoquinolin-6-yl)imidazo[1,2-b]pyridazin-8-yl) acetamide]	< 100 nM	100 to 1000 nM	1000 to 10000 nM	
CCc1cn(C2CCNCC2)c(=O)c2c(F)cc(-c3cc(F)c4nc(C)cn4c3)cc12 [Compound 558, 4-ethyl-8-fluoro-6-{8-fluoro-2-methylimidazo[1,2-a]pyridin-6-yl}-2-(piperidin-4-yl)isoquinolin-1-one]	< 100 nM	100 to 1000 nM	100 to 1000 nM	
C=Cc1cn(C2CCNCC2)c(=O)c2c(F)cc(-c3cc(F)c4nc(C)cn4c3)cc12 [Compound 559, 4-ethenyl-8-fluoro-6-{8-fluoro-2-methylimidazo[1,2-a]pyridin-6-yl}-2-(piperidin-4-yl)isoquinolin-1-one]	< 100 nM	< 100 nM	< 100 nM	
Cc1cn2nc(-c3ccc4c(=O)n(C5CCNCC5)ccc4c3)cc(Oc3ccc(F)cc3)c2n1 [Compound 546, 6-[8-(4-fluorophenoxy)-2-methyl-imidazo[1,2-b]pyridazin-6-yl]-2-(4-piperidyl) isoquinolin-1-one; hydrochloride]	< 100 nM	< 100 nM	< 100 nM	
CN1CCC(c2ccc3c(=O)n(-c4ccc5nn(C)cc5c4)cnc3c2)CC1 [Compound 177]	> 10000 nM	> 10000 nM	> 10000 nM	
Cc1cn2nc(-c3cc4ncn(C5CCNCC5)c(=O)c4cc3F)cc(C)c2n1 [Compound 585, 7-{2,8-dimethylimidazo[1,2-b]pyridazin-6-yl}-6-fluoro-3-(piperidin-4-yl)quinazolin-4-one]	100 to 1000 nM	1000 to 10000 nM	1000 to 10000 nM	
Cc1cn2nc(-c3ccc4c(=O)n(C5CCNCC5)ccc4c3)cc(-n3ccccc3=O)c2n1 [Compound 552, 6-[2-methyl-8-(2-oxo-1-pyridyl)imidazo[1,2-b]pyridazin-6-yl]-2-(4-piperidyl)isoquinolin-1-one]	> 10000 nM	> 10000 nM	> 10000 nM	
